Experiments:
[1] = system: human spermatozoa; test: Sperm motility (immobilizing effect) assay in selected human spermatozoa (swim up); type: cell-based
Procedure: The spermicidal effect of the wild-type peptide and the constructed analog was assayed by assessing the sperm motility in human spermatozoa. For this, 15 mL of HTF-0.1% BSA medium (0.02 g BSA in 20 mL HTF) and 3 mL of HTF-1% BSA medium (0.04 g BSA in 4 mL HTF) were placed in an assay tube and incubated at 37° C. Subsequently, a sample of 2.6 mL of human semen was incubated during 25 minutes until liquefaction. Once liquefied, the sample was divided into 3 15-mL conical tubes with 2 mL of warm HTF-0.1% BSA in each tube. 860 μL of liquefied semen were vertically added to the bottom of each tube, gently pipetting to homogenize the mixture avoiding the formation of bubbles. Large clots were removed. Subsequently, the sample was centrifuged for 8 minutes at 1,800 rpm and the supernatant was discarded by touching only the surface of the medium with the pipette tip just on the tube walls and pipetting out the liquid. […] Then, spermatozoa were counted, reaching values around 10 million of selected spermatozoa per mL (10×10^6/mL). Different concentrations of the total venom and the different venom fractions obtained in the chromatographic purification, as well as the constructed analog peptide, were applied to samples of the spermatozoid previously selected and counted and were incubated in HTF medium for 45 minutes at 37° C. […]

[2] = system: human spermatozoa; test: Hamster oocyte penetration assay (Yanagimachi et al. 1976), fertilizing capacity of human spermatozoa; type: cell-based; details: agent at its IC50 from the sperm motility curve; n=15 oocytes per group; versus control
Procedure: The decrease of the fertilizing capacity of human spermatozoa was assayed using penetration assays in hamster oocytes according to the protocol initially described by Yanagimachi et al. (1976). Briefly, golden hamster oocytes were collected; their […] was removed, and oocytes were subsequently incubated with previously capacitated human spermatozoa at a concentration of 10^7 spermatozoa/ml. The incubation was prolonged for 3-6 hours. […] The oocytes were observed using phase contrast microscopy and were only considered to have been penetrated by spermatozoa when they contained a head in decondensation stage or a male pronucleus inside their cytoplasm.

20-amino acid linear analog of the venom peptide, cysteine 43 replaced by alanine; SLAKTNCFTTEYFQHCVKDL [Ac-[Ala^43]-ATX41-60-NH2]
spermatozoids affected at maximal doses ([1]; maximal doses (FIG. 2)): 100%
IC50 of the immobilizing effect (spermatozoa with no progressive linear movement) ([1]; selected human spermatozoa (swim up), incubated 45 minutes in HTF medium, 37° C.): 39.81 µg/mL
decrease in the fertilizing capacity of spermatozoa [2]: 82±0.3%
